Laboratory results as given in publication PMC4468202, “Improved Visualization and Specific Binding for Metabotropic Glutamate Receptor Subtype 1 (mGluR1) Using [^11C]ITMM with Ultra-High Specific Activity in Small-Animal PET” (PLoS ONE, 2015).

Key:
[1] = system: translocater protein (TSPO); parameters: method as in PMID 20705143; details: ipsilateral side of an ischemic rat brain; cited from earlier work
mGluR1 = mGluR1 (Rattus norvegicus, UniProt P23385); experiment: In vitro binding assay with [^18F]FITM using cerebellum homogenate; parameters: from tissue; host or cells: cerebellum homogenate; details: previous unpublished data, S4 Fig
mGluR1, sequence (P23385 19-1199): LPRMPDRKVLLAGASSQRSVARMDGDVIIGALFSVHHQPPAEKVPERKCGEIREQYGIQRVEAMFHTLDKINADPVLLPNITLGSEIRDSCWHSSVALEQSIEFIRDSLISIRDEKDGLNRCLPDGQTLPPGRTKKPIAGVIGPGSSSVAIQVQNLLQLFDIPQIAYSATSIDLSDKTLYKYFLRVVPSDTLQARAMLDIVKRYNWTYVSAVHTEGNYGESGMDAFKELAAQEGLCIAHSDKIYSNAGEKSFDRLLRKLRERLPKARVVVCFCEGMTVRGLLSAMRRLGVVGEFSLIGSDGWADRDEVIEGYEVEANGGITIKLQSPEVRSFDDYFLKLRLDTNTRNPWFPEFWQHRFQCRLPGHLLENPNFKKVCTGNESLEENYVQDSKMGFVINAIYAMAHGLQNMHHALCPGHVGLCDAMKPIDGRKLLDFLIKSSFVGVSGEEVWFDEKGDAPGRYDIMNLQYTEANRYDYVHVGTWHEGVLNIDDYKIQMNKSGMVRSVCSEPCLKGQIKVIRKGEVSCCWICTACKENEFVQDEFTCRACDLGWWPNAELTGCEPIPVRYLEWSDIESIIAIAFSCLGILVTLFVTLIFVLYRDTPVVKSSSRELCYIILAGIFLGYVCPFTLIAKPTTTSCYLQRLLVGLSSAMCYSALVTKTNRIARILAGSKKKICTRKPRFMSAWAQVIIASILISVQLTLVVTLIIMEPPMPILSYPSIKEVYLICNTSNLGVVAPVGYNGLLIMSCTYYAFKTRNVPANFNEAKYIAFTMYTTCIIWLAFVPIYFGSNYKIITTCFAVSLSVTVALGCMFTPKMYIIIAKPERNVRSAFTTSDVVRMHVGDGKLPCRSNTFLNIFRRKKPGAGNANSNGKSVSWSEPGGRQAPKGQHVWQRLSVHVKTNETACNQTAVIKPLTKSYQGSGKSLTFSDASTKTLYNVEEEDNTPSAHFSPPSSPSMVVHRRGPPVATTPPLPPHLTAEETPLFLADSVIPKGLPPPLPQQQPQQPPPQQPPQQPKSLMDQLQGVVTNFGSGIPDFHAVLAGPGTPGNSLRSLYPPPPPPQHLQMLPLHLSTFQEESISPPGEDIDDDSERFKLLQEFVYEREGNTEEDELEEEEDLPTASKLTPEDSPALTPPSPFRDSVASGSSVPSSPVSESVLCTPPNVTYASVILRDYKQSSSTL

For Cn1c(=O)n(CC(=O)N([11CH3])Cc2ccccc2)c2nc(-c3ccccc3)ncc21 [[^11C]DAC], the “binding potential, ultra-high SA vs conventional SA” value [1] is given as “roughly two times higher”.
In the case of CC(C)Nc1cc(-c2csc(N(C)C(=O)c3ccc([18F])cc3)n2)ncn1 [[^18F]FITM, 4-[18F]fluoro-N-[4-[6-(isopropylamino)pyrimidin-4-yl]-1,3-thiazol-2-yl]-N-methylbenzamide], the binding sites (mGluR1) is reported as “two binding sites of [^18F]FITM possessing high and low affinities”.
